For this data set the following is noted: 101.33 kPa, Liquid; for speed of sound: Sing-around technique in a fixed-path interferometer.

From the NIST ThermoML archive (doi:10.1021/je100652b) come the findings set out here.

± gives the expanded uncertainty stated by the source.

One may read the mass density as mass per unit of volume. As a reminder, the speed of sound is the propagation velocity of pressure waves in the medium. For the compound `Cc1ccc(C)cc1` [1,4-dimethylbenzene], the mass density reads like this: (298.15 K) 856.7 ± 0.39 kg/m3; (308.15 K) 847.88 ± 0.4 kg/m3. Moreover, the speed of sound (298.15 K) was found to be 1314 ± 2 m/s and the speed of sound (308.15 K) came to 1272 ± 2 m/s.
With `c1ccccc1` [benzene], under “298.15 K”, the mass density was found to be 873.58 ± 0.36 kg/m3 and the speed of sound is reported as 1300 ± 2 m/s. For the same compound, under “308.15 K”, the mass density is on record as 862.96 ± 0.38 kg/m3 and the speed of sound was determined as 1260 ± 2 m/s.
Turning to `CCCCO` [butan-1-ol], under “298.15 K”, the mass density was found to be 805.91 ± 0.56 kg/m3 and the speed of sound was 1244 ± 2 m/s. For the same compound, where the note is “308.15 K”, the mass density came out at 798.21 ± 0.57 kg/m3 and the speed of sound was 1212 ± 2 m/s.
In the same order, the values of `C1CCCCC1` [cyclohexane] are 773.86 ± 0.51 kg/m3, 1254 ± 2 m/s, 764.46 ± 0.53 kg/m3 and 1212 ± 2 m/s.
Take `CCc1ccccc1` [ethylbenzene]: for the setting “298.15 K”, the mass density was determined as 862.63 ± 0.38 kg/m3 and the speed of sound is 1319 ± 2 m/s. For the same compound, where the note is “308.15 K”, the mass density is on record as 853.89 ± 0.39 kg/m3 and the speed of sound is on record as 1276 ± 2 m/s.
Take `CCCCCCCO` [heptan-1-ol]: under “298.15 K”, the mass density is given as 818.91 ± 0.55 kg/m3 and the speed of sound stood at 1330 ± 2 m/s. In addition, for the setting “308.15 K”, the mass density is given as 811.94 ± 0.55 kg/m3 and the speed of sound turned out to be 1292 ± 2 m/s.
Consider `C=C(C)C(=O)OC` [methyl methacrylate], for which, where the note is “298.15 K”, the mass density is 937.6 ± 0.28 kg/m3 and the speed of sound was 1182 ± 2 m/s. Besides, for the setting “308.15 K”, the mass density came out at 925.7 ± 0.3 kg/m3 and the speed of sound stood at 1152 ± 2 m/s.
Turning to `CCCCCO` [pentan-1-ol], under “298.15 K”, the mass density is listed as 810.76 ± 0.56 kg/m3 and the speed of sound came out at 1274 ± 2 m/s. For the same compound, for the setting “308.15 K”, the mass density is recorded as 803.41 ± 0.57 kg/m3 and the speed of sound worked out at 1240 ± 2 m/s.
Turning to `Cc1ccccc1` [toluene], where the note is “298.15 K”, the mass density was 862.21 ± 0.38 kg/m3 and the speed of sound came out at 1304 ± 2 m/s. For the same compound, for the setting “308.15 K”, the mass density was 852.86 ± 0.39 kg/m3 and the speed of sound is listed as 1262 ± 2 m/s.
